Drawing on ChEMBL document CHEMBL1144315, “Three-dimensional quantitative structure (3-D QSAR) activity relationship studies on imidazolyl and N-pyrrolyl heptenoates as 3-hydroxy-3-methylglutaryl-CoA reductase (HMGR) inhibitors by comparative molecular similarity indices analysis (CoMSIA)” (Bioorg Med Chem Lett, 2005), this text covers IC50 for 33 compounds.

The assay deals with T1, 3-hydroxy-3-methylglutaryl-coenzyme A reductase (Homo sapiens, UniProt P04035).
T1 sequence (P04035 whole entry): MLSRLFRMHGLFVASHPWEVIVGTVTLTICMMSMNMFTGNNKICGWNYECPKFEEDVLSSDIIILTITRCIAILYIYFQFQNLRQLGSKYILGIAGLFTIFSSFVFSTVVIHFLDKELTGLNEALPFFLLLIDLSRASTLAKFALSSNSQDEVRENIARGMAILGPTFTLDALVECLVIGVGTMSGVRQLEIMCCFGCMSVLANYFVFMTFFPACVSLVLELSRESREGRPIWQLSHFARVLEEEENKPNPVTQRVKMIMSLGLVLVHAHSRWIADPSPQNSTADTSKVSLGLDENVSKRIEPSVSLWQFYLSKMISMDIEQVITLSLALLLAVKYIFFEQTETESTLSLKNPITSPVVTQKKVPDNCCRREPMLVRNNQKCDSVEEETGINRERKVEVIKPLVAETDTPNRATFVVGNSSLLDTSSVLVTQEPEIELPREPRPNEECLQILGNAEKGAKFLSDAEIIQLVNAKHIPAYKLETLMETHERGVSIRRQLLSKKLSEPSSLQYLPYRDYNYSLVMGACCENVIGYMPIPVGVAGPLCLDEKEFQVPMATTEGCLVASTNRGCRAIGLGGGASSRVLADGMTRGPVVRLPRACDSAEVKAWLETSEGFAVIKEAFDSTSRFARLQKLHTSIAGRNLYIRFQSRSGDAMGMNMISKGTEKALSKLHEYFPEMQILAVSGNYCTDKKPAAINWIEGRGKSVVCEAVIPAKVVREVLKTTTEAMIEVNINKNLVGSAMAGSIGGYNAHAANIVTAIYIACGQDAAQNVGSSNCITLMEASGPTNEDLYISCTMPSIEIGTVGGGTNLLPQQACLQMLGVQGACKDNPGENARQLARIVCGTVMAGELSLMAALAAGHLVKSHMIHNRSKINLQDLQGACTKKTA
The assay is described as follows: Inhibitory concentration against 3-hydroxy-3-methylglutaryl-CoA reductase.
On to `O=C(O)C[C@H](O)C[C@H](O)/C=C/n1c(C(F)(F)F)nc(-c2ccc(F)cc2)c1-c1ccc(F)cc1`, for which the IC50 was 7.89 nM.

In turn, `Cc1cc(C)cc(-c2c(-c3ccc(F)cc3)nc(C(C)C)n2/C=C/[C@@H](O)C[C@@H](O)CC(=O)O)c1` yielded a half-inhibitory concentration (IC50) of 7.25 nM.

With `CC(C)c1nc(-c2cccc(S(C)(=O)=O)c2)c(-c2ccc(F)cc2)n1/C=C/[C@@H](O)C[C@@H](O)CC(=O)O`, the IC50 was 8.7 nM.

On to `CC(C)c1c(Br)c(-c2ccc(F)cc2)c(-c2ccc(F)cc2)n1/C=C/[C@@H](O)C[C@@H](O)CC(=O)O`, for which inhibition was half-maximal at 9.52 nM (IC50).

Compound `Cc1nc(-c2ccc(F)cc2)c(-c2ccc(F)cc2)n1/C=C/[C@@H](O)C[C@@H](O)CC(=O)O` had a 50% inhibitory concentration (IC50) of less than 7 nM.

In turn, `Cc1cc(F)ccc1-c1c(-c2ccc(F)cc2)nc(C(C)C)n1/C=C/[C@@H](O)C[C@@H](O)CC(=O)O` displayed an IC50 of 8.4 nM.

Compound `CC(C)c1cc(-c2ccc(F)cc2)c(-c2ccccc2)n1/C=C/[C@@H](O)C[C@@H](O)CC(=O)O` came in with an IC50 of 7.6 nM.

The compound `CNc1cccc(-c2nc(C(C)C)n(/C=C/[C@@H](O)C[C@@H](O)CC(=O)O)c2-c2ccc(F)cc2)c1` displayed a 50% inhibitory concentration (IC50) of 8.52 nM.

In the case of `CC(C)(C)c1nc(-c2ccc(F)cc2)c(-c2ccc(F)cc2)n1/C=C/[C@@H](O)C[C@@H](O)CC(=O)O`, the IC50 came to 8.15 nM.

Consider `CC(C)c1cc(-c2ccccc2)c(-c2ccc(F)cc2)n1/C=C/[C@@H](O)C[C@@H](O)CC(=O)O`, for which the half-maximal inhibitory concentration (IC50) was found to be 8.7 nM.

For the compound `Cc1cc(-c2c(-c3ccc(F)cc3)nc(C(C)C)n2/C=C/[C@@H](O)C[C@@H](O)CC(=O)O)cc(C)c1F`, 7.52 nM corresponded to half-maximal inhibition (IC50).

`CC(C)c1cc(-c2ccc(F)cc2)c(-c2cccc(Cl)c2)n1/C=C/[C@@H](O)C[C@@H](O)CC(=O)O`: it took 7.15 nM to reach half-maximal inhibition (IC50).

As to `CN(C)c1nc(-c2ccc(F)cc2)c(-c2ccc(F)cc2)n1/C=C/[C@@H](O)C[C@@H](O)CC(=O)O`, the IC50 stood at 8.04 nM.

On to `CCc1cc(-c2c(-c3ccc(F)cc3)nc(C(C)C)n2/C=C/[C@@H](O)C[C@@H](O)CC(=O)O)cc(CC)c1F`, for which the IC50 turned out to be 7 nM.

`CC(C)c1cc(-c2cccc(Cl)c2)c(-c2ccc(F)cc2)n1/C=C/[C@@H](O)C[C@@H](O)CC(=O)O` displayed a concentration for half-maximal inhibition (IC50) of 8.7 nM.

`CC(C)c1cc(-c2ccc(F)cc2)c(-c2cccc(Br)c2)n1/C=C/[C@@H](O)C[C@@H](O)CC(=O)O` gave an IC50 of 7.16 nM.

`CC(C)c1c(-c2ccc(F)cc2)nc(-c2ccc(F)cc2)n1/C=C/[C@@H](O)C[C@@H](O)CC(=O)O` showed an IC50 of 9 nM.

With `Cc1cc(-c2nc(C(C)C)n(/C=C/[C@@H](O)C[C@@H](O)CC(=O)O)c2-c2ccc(F)cc2)cc(C)c1Cl`, it took 8.7 nM to reach half-maximal inhibition (IC50).

In turn, `CC(C)c1cc(-c2cccc(Br)c2)c(-c2ccc(F)cc2)n1/C=C/[C@@H](O)C[C@@H](O)CC(=O)O` displayed a half-inhibitory concentration (IC50) of 9.3 nM.

Regarding `CC(C)c1nc(-c2ccc(F)cc2)c(-c2ccc(F)cc2)n1/C=C/[C@H](O)C[C@H](O)CC(=O)O`, the IC50 was determined as 6.15 nM.

The compound `CC(C)c1nc(-c2ccc(F)cc2)c(-c2cccc(Cl)c2)n1/C=C/[C@@H](O)C[C@@H](O)CC(=O)O` came in with an IC50 of 8.1 nM.

As for `CC(C)c1cc(-c2ccncc2)c(-c2ccc(F)cc2)n1/C=C/[C@@H](O)C[C@@H](O)CC(=O)O`, the IC50 turned out to be 8.3 nM.

Turning to `CC(C)c1nc(-c2cccnc2)c(-c2ccc(F)cc2)n1/C=C/[C@@H](O)C[C@@H](O)CC(=O)O`, the IC50 came out at 9 nM.

`CC(C)c1nc(-c2ccc(F)cc2)c(-c2ccc(F)cc2)n1/C=C/[C@H](O)C[C@@H](O)CC(=O)O` came in with an IC50 of 5.7 nM.

`CC(C)c1nc(-c2ccc(F)cc2)c(-c2cc(Cl)cc(Cl)c2)n1/C=C/[C@@H](O)C[C@@H](O)CC(=O)O` came in with an IC50 of 7.66 nM.

In turn, `CC(C)c1cc(-c2ccccn2)c(-c2ccc(F)cc2)n1/C=C/[C@@H](O)C[C@@H](O)CC(=O)O` registered a half-inhibitory concentration (IC50) of 8.7 nM.

Regarding `CC(C)c1nc(-c2ccc(F)cc2)c(-c2ccc(F)cc2)n1/C=C/[C@@H](O)C[C@@H](O)CC(=O)O`, inhibition was half-maximal at 9 nM (IC50).

In the case of `CC(C)c1cc(-c2ccc(F)cc2)c(-c2ccc(F)cc2)n1/C=C/[C@@H](O)C[C@@H](O)CC(=O)O` (stereo in doubt; 19), the IC50 stood at 8.7 nM.

`CC(C)c1cc(-c2ccc(F)cc2)c(-c2ccc(F)cc2)n1/C=C/[C@@H](O)C[C@@H](O)CC(=O)O` (stereo in doubt; 29): the IC50 came out at 6.98 nM.

Regarding `COCc1c(C(C)C)nc(C(C)C)c(/C=C/[C@@H](O)C[C@@H](O)CC(=O)O)c1-c1ccc(F)cc1` [CERIVASTATIN], the IC50 worked out at 10 nM.

For the compound `CC(C)n1c(/C=C/C(O)CC(O)CC(=O)O)c(-c2ccc(F)cc2)c2ccccc21` (stereo not drawn) [FLUVASTATIN], the IC50 was determined as 28 nM.

`CC[C@H](C)C(=O)O[C@H]1CCC=C2C=C[C@H](C)[C@H](CC[C@@H]3C[C@@H](O)CC(=O)O3)[C@H]21` [MEVASTATIN] displayed an IC50 of 23 nM.

`CC(C)c1nc(N(C)S(C)(=O)=O)nc(-c2ccc(F)cc2)c1/C=C/[C@@H](O)C[C@@H](O)CC(=O)O` [ROSUVASTATIN] came in with an IC50 of 5 nM.

As usually defined, the IC50 is the concentration at which inhibition is half-maximal. Low readings indicate greater potency, high ones weaker potency.
